Test results: PubChem BioAssay (NCI)
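These data come from cells grown in 96-well plates and exposed to compound for 48 hours at five concentrations. Definition used: TGI = concentration required for complete inhibition of growth.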

Assays:
Assay in all cases: growth of human tumour cells (NCI), 48 h
CAKI-1 renal = system: CAKI-1 renal
HL-60(TB) leukemia = system: HL-60(TB) leukemia
ACHN renal = system: ACHN renal
DU-145 prostate = system: DU-145 prostate
LOX IMVI melanoma = system: LOX IMVI melanoma
MALME-3M melanoma = system: MALME-3M melanoma
MDA-N = system: MDA-N
HCT-116 colon = system: HCT-116 colon
UO-31 renal = system: UO-31 renal
TK-10 renal = system: TK-10 renal

Row | SMILES | TGI (CAKI-1 renal) [µM] | TGI (HL-60(TB) leukemia) [µM] | TGI (ACHN renal) [µM] | TGI (DU-145 prostate) [µM] | TGI (LOX IMVI melanoma) [µM] | TGI (MALME-3M melanoma) [µM] | TGI (MDA-N) [µM] | TGI (HCT-116 colon) [µM] | TGI (UO-31 renal) [µM] | TGI (TK-10 renal) [µM]
1 | CCOc1cc(/C=N/c2nc3cc4sc(/N=C/c5ccc(O)c(OCC)c5)nc4cc3s2)ccc1O | > 100 | 19.9 | > 100 | > 100 | > 100 | > 100 | > 100 | > 100 | > 100 | > 100
2 | CCOC(CN(C)C(=O)Nc1ccc(Cl)c(Cl)c1)OCC | > 10 | > 10 | > 10 | > 10 | > 10 | > 10 | > 10 | > 10 | > 10 | > 10
3 | O=[N+]([O-])c1ccc(NNN=Nc2ccc(-c3nc4ccccc4[nH]3)cc2)c([N+](=O)[O-])c1 | > 100 | > 100 | > 100 | > 100 | > 100 | > 100 | > 100 | > 100 | > 100 | > 100
4 | CC1=NNC(=O)C1C1CC(c2c[nH]c3ccccc23)=NN(c2ccccc2)C1=O (stereo not given) | > 100 | 92.4 | > 100 | > 100 | > 100 | > 100 | > 100 | > 100 | > 100 | > 100
5 | O=C(c1cc(Cl)cc(Cl)c1)N(Cc1cccnc1)C(=S)N(Cc1cccnc1)C(=O)c1cc(Cl)cc(Cl)c1 | > 100 | 90 | 47.3 | > 100 | > 100 | > 100 | > 100 | 96.5 | 56.2 | 89.6
6 | COC(O)C(=O)c1c2c(cc3c1CCC3)CCC2 (stereo not given) | > 100 | 79.9 | > 100 | > 100 | > 100 | > 100 | > 100 | > 100 | > 100 | > 100
7 | COc1ccc2nc3cc([N+](=O)[O-])ccc3c(NNc3ccc([N+](=O)[O-])cc3)c2c1 | 29.6 | 54.2 | > 100 | > 100 | > 100 | > 92.5 | > 100 | > 100 | > 100 | > 24.2
8 | CN1C(=O)N/C(=C\c2ccc(S(=O)(=O)N/N=C/c3ccccc3)cc2)C1=O | > 100 | > 100 | > 100 | > 100 | > 100 | > 100 | > 100 | > 100 | > 100 | > 100
9 | N#CC(NNC(=O)c1c(Cl)c(Cl)c(Cl)c(Cl)c1-c1nc2ccc(C(=O)c3ccccc3)cc2[nH]1)c1ccccc1 (stereo not given) | > 100 | 45.6 | > 100 | > 100 | 87.9 | > 100 | 6.78 | > 100 | > 100 | 90.8
10 | COc1ccc(OC)c(N=Cc2cc(OC)c(OC)c(OC)c2)c1 | > 100 | > 100 | > 100 | > 100 | > 100 | > 100 | > 100 | > 100 | > 100 | > 100
11 | N#CC(c1ccccc1)N(CCc1ccccc1)C(=O)c1ccc(C(=O)N(CCc2ccccc2)C(C#N)c2ccccc2)cc1 (stereo not given) | > 100 | > 100 | 73.5 | > 100 | 37 | 39.3 | 65.1 | 28.4 | 63.8 | 29.8
12 | Brc1c2c(c(Br)c3nsnc13)N=S=N2 | 40.4 | 12.3 | 72.2 | > 100 | 13.9 | > 72.6 | > 73 | > 69.2 | 56.7 | 47.3
13 | O=S(=O)(O)c1ccc(Nc2ccnc3ccccc23)cc1 | > 100 | > 100 | > 100 | > 100 | > 100 | > 100 | > 100 | > 100 | > 100 | > 100
14 | Clc1cc2nc(C3CCCCO3)[nH]c2cc1Cl (stereo not given) | > 100 | > 53.5 | > 100 | > 100 | > 100 | > 100 | 22.8 | > 100 | > 53.3 | > 100
15 | COc1ccc(C2CC(c3ccc(NS(=O)(=O)c4cc([N+](=O)[O-])ccc4C)cc3)=NN2S(=O)(=O)c2cc([N+](=O)[O-])ccc2C)cc1 (stereo not given) | > 100 | > 100 | > 100 | > 100 | > 100 | > 100 | > 100 | > 100 | > 100 | > 100
16 | Fc1cc(C2=Nn3c(CNc4ccc(Cl)cc4)nnc3S/C2=C\c2ccc(-c3ccc(Cl)cc3)o2)c(Cl)cc1Cl | 72.4 | > 100 | > 100 | > 100 | > 100 | 60.7 | > 100 | > 100 | > 100 | > 100
17 | C=C[C@]1(C)CC(=O)C(C(C)C=O)[C@]12C(=O)Oc1cccc(C)c1C2=O (stereo not given in full) | 27.6 | 32.3 | 29 | 30.6 | 27.5 | 34.5 | 27.6 | 20.6 | 28.9 | 28.2
18 | CCCC(=O)N(C)N=Nc1ccc(C(=O)OCC)cc1 | > 100 | > 100 | > 100 | > 100 | > 100 | > 100 | > 100 | > 100 | > 100 | > 100

Row | SMILES | TGI (CAKI-1 renal) [µM] | TGI (HL-60(TB) leukemia) [µM] | TGI (ACHN renal) [µM] | TGI (DU-145 prostate) [µM] | TGI (LOX IMVI melanoma) [µM] | TGI (MALME-3M melanoma) [µM] | TGI (MDA-N) [µM] | TGI (HCT-116 colon) [µM] | TGI (UO-31 renal) [µM] | TGI (TK-10 renal) [µM]
19 | CN1CN(c2ccccc2)C2(CCN(C3Nc4ccccc4O3)CC2)C1=O (stereo not given) | > 100 | 43.5 | 55.9 | 60.1 | 26.8 | 38 | 49.1 | 29.8 | 69.8 | 46.3
20 | C[C@@H](Oc1ccc(Oc2cnc3ccc(Cl)cc3n2)cc1)C(=O)O | > 100 | > 100 | > 100 | > 100 | > 100 | > 100 | > 100 | > 100 | > 100 | > 100
21 | Cc1ccc(C(=O)O)c(/C=C2\Cc3cc(C)cc(C)c3C2=O)c1 | > 100 | > 100 | > 100 | > 100 | > 100 | > 100 | > 100 | > 100 | > 100 | > 100
22 | CC(C)C1CC(CO)(CNc2nc(N)nc(Cl)c2/C=N\O)C1 (stereo not given) | 33.7 | 29.1 | 35 | > 100 | 22.5 | 16 | 23.9 | 34 | 36.3 | 61.1
23 | COc1ccc(-c2[nH]c(-c3ccc(OC)cc3)c(-c3ccccn3)c2-c2ccccn2)cc1 | > 100 | > 100 | > 100 | > 100 | 65.5 | > 100 | > 100 | > 100 | > 100 | > 100
24 | COC(=O)[C@H](C)NC(=O)C1(CNC(=O)[C@H](C)NC(=O)OC(C)(C)C)Cc2ccccc2-c2ccccc2C1 | > 39.6 | 39.5 | > 57.7 | > 42.7 | 9.13 | 36.1 | > 58.5 | > 54.1 | 11.6 | > 59.2
25 | CCOC(=O)NC(Nc1ccc(S(=O)(=O)Nc2ccc(OC)nn2)cc1)(C(F)(F)F)C(F)(F)F | > 100 | 58.2 | 90.7 | > 100 | 82 | 40.2 | > 100 | 44.5 | > 100 | 68.8
26 | Cc1ccc(S(=O)(=O)NN=C2C(C)(C)CC2(C)C)cc1 | > 100 | > 100 | > 100 | > 100 | > 100 | > 100 | > 100 | > 100 | > 100 | > 100
27 | O=C1C(Cl)=C(N2CCN(CCOCCO)CC2)C(=O)c2ccccc21 | 29.5 | 14 | 19.5 | 34 | 17.7 | 15.2 | 4.17 | 11.1 | 21.2 | 34.7
28 | CC(=O)Nc1c2sscc-2n(C)c1=O | 3.36 | 5.9 | 12.1 | 5.54 | 3.39 | 2.19 | 3.13 | 1.96 | 3.58 | 4.83
29 | CCOC(=O)c1cc(C2=CCNC2=O)c(-c2cc(C)no2)[nH]1 | > 100 | 56.8 | > 100 | > 100 | > 100 | > 100 | > 100 | > 100 | > 100 | > 100
30 | O=C(NNC(=S)Nc1ccc(Cl)cc1)C12CC3CC(CC(C3)C1)C2 | 49.5 | 5.48 | 29 | 43.6 | 19 | 47.4 | 43.6 | 9.26 | 19 | 70.8
31 | O=C1C=CC(=O)c2c(O)c(NCCO)c(Cl)c(O)c21 | > 10 | 5.95 | > 10 | 4.98 | 3 | 2.71 | 3.42 | 3.55 | > 10 | > 10
32 | O=C(CCc1ccc(O)c(O)c1)NCCc1ccccc1 | 41 | 34 | > 100 | > 100 | > 100 | > 100 | 43.3 | > 31.6 | > 74.5 | > 100
33 | Cc1c2oc3c(C)cnc(C(=O)NC4C(=O)NC(C(C)C)C(=O)N5CCCC5C(=O)N(C)CC(=O)N(C)C(C(C)C)C(=O)OC4C)c3nc-2c(C(=O)NC2C(=O)NC(C(C)C)C(=O)N3CCCC3C(=O)N(C)CC(=O)N(C)C(C(C)C)C(=O)OC2C)c(N)c1=O (stereo not given) | 73 | > 26 | > 64.6 | > 75 | 10.3 | 16.6 | 16.9 | > 35.5 | 51 | > 75
34 | Cc1ccc(NC(=O)CC(=O)N2N=C(N3CCCCC3)CC2c2ccccc2)cc1 (stereo not given) | > 100 | > 100 | > 100 | > 100 | > 100 | > 100 | > 100 | > 100 | > 100 | > 100
35 | O=C(CC(Cc1ccccc1)c1ccc(Oc2ccccc2)cc1)Nc1cccc(Cl)c1 (stereo not given) | > 100 | 10.2 | 27.1 | > 100 | 49.2 | > 100 | > 100 | > 100 | > 100 | > 100
36 | CC1(c2nc3ccccc3[nH]2)CCC(C#N)C(C)(C)O1 (stereo not given) | > 100 | > 100 | > 100 | > 100 | > 100 | > 100 | > 100 | > 100 | > 100 | > 100
